Tests used:
[1] = not given; remark: listed apart in the source
[2] = not given; remark: listed apart in the source

flash point	Structure (SMILES)	flash point [1]	further results
55.00 °C	C=C[CH2][Ge]([Cl])([Cl])[Cl] [ALLYLTRICHLOROGERMANE]		
48.00 °C	C=C[CH2][Ge]([CH2]C)([CH2]C)[CH2]C [ALLYLTRIETHYLGERMANE]		
	CCCC[O][Sn]([CH2]CCC)([CH2]CCC)[O]CCCC [DI-n-BUTYLDI-n-BUTOXYTIN]	116.00 °C	
	CCC[CH2][Sn]([CH2]CCC)([O]C(C)=O)[O]C(C)=O [DI-n-BUTYLDIACETOXYTIN]	143.00 °C	
	CCC[CH2][Sn]([CH2]CCC)([O]C)[O]C [DI-n-BUTYLDIMETHOXYTIN]	110.00 °C	
	C[C](C)(C)[Sn]([Cl])([Cl])[C](C)(C)C [DI-t-BUTYLDICHLOROTIN]	113.00 °C	
	C=C[CH2][Sn]([CH2]C=C)([CH2]CCC)[CH2]CCC [DIALLYLDI-n-BUTYLTIN]	101.00 °C	
33.00 °C	[CH3][Ge]([CH3])([CH3])[CH](Cl)Cl [DICHLOROMETHYLTRIMETHYLGERMANE]		
52.00 °C	C[CH2][Ge]([Cl])([Cl])[CH2]C [DIETHYLDICHLOROGERMANE]		
-10.00 °C	C[N](C)[Ge]([CH3])([CH3])[CH3] [DIMETHYLAMINOTRIMETHYLGERMANE]		
	C[N](C)[Sn]([CH3])([CH3])[CH3] [DIMETHYLAMINOTRIMETHYLTIN]	1.00 °C	
	CCCCCCCCCCC[CH2][Sn]([CH2]CCCCCCC)([CH2]CCCCCCC)[CH2]CCCCCCCCCCC [DIOCTYLDILAURYLTIN]	198.00 °C	
	C#[C][Sn]([CH2]CCC)([CH2]CCC)[CH2]CCC [ETHYNYLTRI-n-BUTYLTIN]	73.00 °C	
40.00 °C	CC[O][Ge]([CH3])([O]CC)[O]CC [METHYLTRIETHOXYGERMANE]		
	CCC[CH2][Sn]([CH2]CCC)([CH2]CCC)[c]1ccccc1 [PHENYLTRI-n-BUTYLTIN]	107.00 °C	
90.00 °C	CCC[CH2][Ge]([CH2]CCC)([CH2]CCC)[CH2]CCC [TETRA-n-BUTYLGERMANE]		
	CCC[CH2][Sn]([CH2]CCC)([CH2]CCC)[CH2]CCC [TETRA-n-BUTYLTIN]	107.00 °C	
	CCCCCCC[CH2][Sn]([CH2]CCCCCCC)([CH2]CCCCCCC)[CH2]CCCCCCC [TETRA-n-OCTYLTIN]	94.00 °C	
70.00 °C	C=C[CH2][Ge]([CH2]C=C)([CH2]C=C)[CH2]C=C [TETRAALLYLGERMANE]		
62.00 °C	CC[O][Ge]([O]CC)([O]CC)[O]CC [TETRAETHOXYGERMANE]		

flash point	Structure (SMILES)	flash point [1]	further results
68.00 °C	CC(C)[O][Ge]([O]C(C)C)([O]C(C)C)[O]C(C)C [TETRAISOPROPOXYGERMANE]		
-19.00 °C	[CH3][Ge]([CH3])([CH3])[CH3] [TETRAMETHYLGERMANE]		
	[CH3][Sn]([CH3])([CH3])[CH3] [TETRAMETHYLTIN]	-12.00 °C	
	c1cc[c]([Sn]([c]2ccccc2)([c]2ccccc2)[c]2ccccc2)cc1 [TETRAPHENYLTIN]	231.00 °C	
94.00 °C	CCC[CH2][Ge]([Cl])([CH2]CCC)[CH2]CCC [TRI-n-BUTYLCHLOROGERMANE]		
	CCC[CH2][Sn]([Cl])([CH2]CCC)[CH2]CCC [TRI-n-BUTYLCHLOROTIN]	120.00 °C	
	CCC[CH2][Sn]([CH2]CCC)([CH2]CCC)[O]CC [TRI-n-BUTYLETHOXYTIN]	104.00 °C	
78.00 °C	CCC[CH2][GeH]([CH2]CCC)[CH2]CCC [TRI-n-BUTYLGERMANE]		
	CCC[CH2][Sn]([I])([CH2]CCC)[CH2]CCC [TRI-n-BUTYLIODOTIN]	113.00 °C	
	CCC[CH2][SnH]([CH2]CCC)[CH2]CCC [TRI-n-BUTYLTIN HYDRIDE]	40.00 °C	
12.00 °C	[Cl][GeH]([Cl])[Cl] [TRICHLOROGERMANE]		
	C1CC[CH]([SnH]([CH]2CCCCC2)[CH]2CCCCC2)CC1 [TRICYCLOHEXYLTIN HYDRIDE]	105.00 °C	
38.00 °C	C[CH2][Ge]([Cl])([CH2]C)[CH2]C [TRIETHYLCHLOROGERMANE]		
5.00 °C	C[CH2][GeH]([CH2]C)[CH2]C [TRIETHYLGERMANE]		
66.00 °C	C[CH](C)[Ge]([Cl])([CH](C)C)[CH](C)C [TRIISOPROPYLCHLOROGERMANE]		
1.00 °C	[CH3][Ge]([CH3])([CH3])[Cl] [TRIMETHYLCHLOROGERMANE]		
	[CH3][Sn]([CH3])([CH3])[Cl] [TRIMETHYLCHLOROTIN]	97.00 °C	
	CC(C)(C)[O-].CC(C)(C)[O-].CC(C)(C)[O-].CC(C)(C)[O-].[Zr+4] [ZIRCONIUM t-BUTOXIDE]		flash point [2]: 85.00 °C
	CCC[CH2][Sn]([CH2]CCC)([CH2]CCC)[C](C)(C)C [t-BUTYLTRI n-BUTYLTIN]	102.00 °C	
